{
  "source": "patent US6399647B2",
  "about": "“Amide derivatives for antiangiogenic and/or antitumorigenic use” (Vanderbilt University, priority 1999, dated 2002)",
  "key": {"[1]": {"tested_on": "COX-1", "conditions": "background b24; cited from earlier work"}, "[2]": {"target": "T1, COX-2 (Homo sapiens, UniProt P35354)", "T1 sequence (P35354 18-604)": "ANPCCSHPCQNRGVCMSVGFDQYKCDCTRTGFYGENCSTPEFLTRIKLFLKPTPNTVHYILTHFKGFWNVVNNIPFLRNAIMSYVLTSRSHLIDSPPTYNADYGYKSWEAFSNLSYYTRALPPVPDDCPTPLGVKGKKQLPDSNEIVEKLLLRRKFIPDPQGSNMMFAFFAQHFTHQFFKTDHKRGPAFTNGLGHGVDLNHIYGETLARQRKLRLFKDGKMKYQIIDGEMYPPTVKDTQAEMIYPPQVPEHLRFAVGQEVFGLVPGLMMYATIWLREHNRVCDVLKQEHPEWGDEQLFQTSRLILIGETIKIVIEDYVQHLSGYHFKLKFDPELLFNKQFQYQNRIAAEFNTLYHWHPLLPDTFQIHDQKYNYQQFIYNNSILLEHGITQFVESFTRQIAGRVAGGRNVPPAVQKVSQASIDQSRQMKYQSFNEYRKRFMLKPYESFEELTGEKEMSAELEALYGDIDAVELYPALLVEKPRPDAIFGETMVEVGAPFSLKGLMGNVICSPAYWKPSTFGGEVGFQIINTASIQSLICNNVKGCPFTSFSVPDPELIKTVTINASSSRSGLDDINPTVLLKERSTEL", "conditions": "background b24; cited from earlier work"}, "[3]": {"tested_on": "tumors", "conditions": "background b24; cited from earlier work"}, "[4]": {"target": "T1, COX-2", "experiment": "TLC assay, inhibition of purified human COX-2", "format": "biochemical", "design": "made in house; host or cells: insect cells (baculovirus vectors)"}, "[5]": {"tested_on": "carrageenan-induced rat foot pad edema", "experiment": "Rat foot pad edema model (carrageenan)", "format": "in vivo", "conditions": "2 mg/kg orally", "method": "Rats were injected with carrageenan, which triggers a rapid edema (swelling) within 3 hours that can be quantitatively measured by volume displacement.\nIn these experiments, the carrageenan that was injected was in 0.1 mL of aqueous saline so that 0.1 mL volume increase was due to the injection alone.\nMore specifically, male Sprague-Dawley rats (150 g) received a subplantar injection of carrageenan (0.1 mL of a 1% suspension of carrageenan in sterile aqueous saline) into the right hind footpad while mildly anesthetized with methoxyflurane. […] The ipsilateral footpad volume (mL) was measured with a water displacement plethysmometer at time=3 hours post-injection and compared to the time=0 pre-injection paw volume for edema calculations."}, "[6]": {"target": "T2, ovine COX-1 (Ovis aries, UniProt P05979)", "T2 construct": "COX-1 was purified from ram seminal vesicles obtained from Oxford Biomedical Research, Inc; tissue Oxford Biomedical Research, Inc. (Oxford, Michigan) (supplier of the tissue); host or cells: ram seminal vesicles", "T2 sequence (P05979 25-600)": "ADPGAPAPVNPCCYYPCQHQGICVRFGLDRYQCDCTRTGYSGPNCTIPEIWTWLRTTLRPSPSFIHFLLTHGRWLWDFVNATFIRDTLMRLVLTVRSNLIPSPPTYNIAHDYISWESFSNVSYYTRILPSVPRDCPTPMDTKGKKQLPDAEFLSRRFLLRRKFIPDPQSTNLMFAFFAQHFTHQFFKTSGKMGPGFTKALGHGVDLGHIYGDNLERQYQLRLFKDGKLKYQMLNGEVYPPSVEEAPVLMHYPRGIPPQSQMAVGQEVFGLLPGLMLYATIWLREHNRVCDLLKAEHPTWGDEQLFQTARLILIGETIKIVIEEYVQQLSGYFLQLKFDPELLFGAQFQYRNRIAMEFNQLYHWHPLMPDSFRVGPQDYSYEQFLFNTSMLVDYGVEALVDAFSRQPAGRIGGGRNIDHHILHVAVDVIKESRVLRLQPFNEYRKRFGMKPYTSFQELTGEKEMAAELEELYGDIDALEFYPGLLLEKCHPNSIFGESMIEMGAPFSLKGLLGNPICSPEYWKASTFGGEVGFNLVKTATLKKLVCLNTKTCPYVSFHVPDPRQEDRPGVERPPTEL", "experiment": "TLC assay, inhibition of purified ovine COX-1", "format": "biochemical", "conditions": "ovine COX-1 (44 nM), inhibitor 20 min, then 1-14C-AA (50 μM) at 37° C. for 30 sec, duplicate"}, "[7]": {"tested_on": "HCA-7 (human colon adenocarcinoma, colony 29) cells", "experiment": "Human tumor xenograft assay in nude mice", "format": "in vivo", "conditions": "HCA-7, 5 mg/kg intraperitoneally 3 times per week", "procedure": "Tumor volume was determined by external measurement with an electronic caliper."}},
  "note": "Read-outs that look alike come from different tables or passages of the source.",
  "data": [
    {"molecule": "CC1=C(CC(=O)O)c2cc(F)ccc2/C1=C\\c1ccc(S(C)(=O)=O)cc1", "note": "[sulindac sulfone]", "values": [
      {"measurement": "COX-1 inhibition (in words)", "setting": "[1]", "value": "does not inhibit"},
      {"measurement": "COX-2 inhibition (in words)", "setting": "[2]", "value": "does not inhibit"},
      {"measurement": "inhibition of tumors (in words)", "setting": "[3]", "value": "exhibits inhibition of tumors"}
    ]},
    {"molecule": "COc1ccc2c(c1)c(CC(=O)Nc1cccnc1)c(C)n2C(=O)c1ccc(Cl)cc1", "note": "[Compound 20, Indomethacin-N-(3-pyridyl) amide]", "values": [
      {"measurement": "COX-2 inhibition (in words)", "setting": "[4]", "value": "potent and selective COX-2 inhibition"}
    ]},
    {"molecule": "COc1ccc2c(c1)c(CC(=O)Nc1ccc(NC(C)=O)cc1)c(C)n2C(=O)c1ccc(Cl)cc1", "note": "[Compound 14, Indomethacin-N-(4-acetamidophenyl) amide]", "values": [
      {"measurement": "effect on swelling / inflammation (in words)", "setting": "[5]", "value": "dramatic decrease in swelling"}
    ]},
    {"molecule": "COc1ccc2c(c1)c(CC(=O)N(C)CCc1ccccc1)c(C)n2C(=O)c1ccc(Cl)cc1", "note": "[Compound 9, lndomethacin-N-methylphenethyl amide]", "values": [
      {"measurement": "IC50", "setting": "[6]", "value": "> 66", "unit": "µM"}
    ]},
    {"molecule": "CSc1ccc(/C=C2/C(C)=C(CC(=O)O)c3cc(F)ccc32)cc1", "note": "[sulindac sulfide]", "values": [
      {"measurement": "more potent inhibitor against COX-1 than COX-2", "setting": "[1]", "value": 40, "unit": "fold"},
      {"measurement": "inhibition of tumors (in words)", "setting": "[3]", "value": "exhibits inhibition of tumors"}
    ]},
    {"molecule": "Indomethacin-N-2-(2-L-methoxycarbonylethyl) amide [Compound 25]", "values": [
      {"measurement": "IC50", "setting": "[4]; human COX-2 (66 nM), inhibitor 20 min, then 1-14C-AA (50 μM) at 37° C. for 30 sec, duplicate", "value": 0.4, "unit": "µM"}
    ]},
    {"molecule": "COc1ccc2c(c1)c(CC(=O)O)c(C)n2C(=O)c1ccc(Cl)cc1", "note": "[Indomethacin, indomethacin, reference compound]", "values": [
      {"measurement": "effect on swelling / inflammation (in words)", "setting": "[5]", "value": "comparable reduction in inflammation"}
    ]},
    {"molecule": "Indomethacin-N-(2-phenethyl) amide [Compound 11]", "values": [
      {"measurement": "tumor growth (in words)", "setting": "[7]", "value": "significantly inhibited tumor growth"},
      {"measurement": "tumor vol. cm^3", "setting": "[7]; day of explant 22", "value": 0.10, "unit": "cm^3"},
      {"measurement": "tumor vol. cm^3", "setting": "[7]; day of explant 25", "value": 0.11, "unit": "cm^3"},
      {"measurement": "tumor vol. cm^3", "setting": "[7]; day of explant 27", "value": 0.13, "unit": "cm^3"},
      {"measurement": "tumor vol. cm^3", "setting": "[7]; day of explant 29", "value": 0.14, "unit": "cm^3"},
      {"measurement": "tumor vol. cm^3", "setting": "[7]; day of explant 31", "value": 0.17, "unit": "cm^3"}
    ]}
  ]
}
